Experimental findings from PMC8945229, “Development and Biological Characterization of a Novel Selective TrkA Agonist with Neuroprotective Properties against Amyloid Toxicity” (Biomedicines, 2022) are described below.

The term pIC50 denotes the negative decadic logarithm of the IC50, by convention in mol/L.

For one data set, the target named is T1, CYP1A2 (Homo sapiens, UniProt P05177).
T1 construct: purchased Thermo Fisher Scientific; host or cells: Baculosomes (microsomes of baculovirus-infected insect cells: own knowledge)
In words: Isozyme-specific CYP450 inhibition (Baculosomes). Particulars: 1 μM, 60 min. Format: in vitro ADME. On the procedure:
(§1) Baculosomes® expressing CYP1A2, CYP2A6, CYP2B6, CYP2C9, CYP2C19, CYP2D6 and CYP3A4 human CYP450 isoenzymes were purchased from Thermo Fisher Scientific (Waltham, MA, USA). All reagents were handled and prepared according to the manufacturer’s protocol. ENT-A013 was tested at 1 μM. Enzymatic activity in the presence of ΕΝΤ-A013 was assessed based on the kinetic model for CYP1A2, CYP2A6, CYP2B6, CYP2C9, CYP2C19, CYP2D6 and CYP3A4 isoforms. Reactions took place in triplicates at 20 °C. Glucose-6-phosphate at 333 mM and glucose-6-phosphate-dehydrogenase at 30 U/mL in 100 mM potassium phosphate, pH 8.0 (regeneration system) converted NADP^+ (10 mM in 100 mM potassium phosphate, pH 8.0) into NADPH to initiate the CYP450 reaction. Upon the addition of the fluorescent substrate, immediately (<2 min), the fluorescence signal was monitored over time at suitable excitation and emission wavelengths by Lionheart FX (BioTek, Winooski, VT, USA) (Table S2). CYP450 inhibition (%) was determined based on the reaction rates (fluorescence intensity changes per unit time). A total of n = 60 measurements per minute were acquired for a total time of t = 60 min. % Inhibition= (1 − X/A) × 100%(1) where: X is the rate observed in the presence of test-compound; A is the rate observed in the presence of negative (solvent, DMSO) control.

Another data set has as its target T2, CYP2B6 (Homo sapiens, UniProt P20813).
T2 construct: purchased Thermo Fisher Scientific; host or cells: Baculosomes (microsomes of baculovirus-infected insect cells: own knowledge)
As to the kind of experiment: Isozyme-specific CYP450 inhibition (Baculosomes). Conditions: 1 μM, 60 min. Format: in vitro ADME. The method, then: as §1

The target of the next data set is T3, CYP2C9 (Homo sapiens, UniProt P11712).
T3 construct: purchased Thermo Fisher Scientific; host or cells: Baculosomes (microsomes of baculovirus-infected insect cells: own knowledge)
As to the kind of experiment: Isozyme-specific CYP450 inhibition (Baculosomes). It counts as in vitro ADME. Conditions: 1 μM, 60 min. The method, then: as §1

For another data set, the target named is T4, CYP2D6 (Homo sapiens, UniProt P10635).
T4 construct: purchased Thermo Fisher Scientific; host or cells: Baculosomes (microsomes of baculovirus-infected insect cells: own knowledge)
In words: Isozyme-specific CYP450 inhibition (Baculosomes). It counts as in vitro ADME. Particulars: 1 μM, 60 min. On the procedure:
as §1

For the next data set, the system named is γ-secretase. As to the kind of experiment: γ-secretase activity / APP processing in U2OS APP-C99-tGFP cells. Format: cell-based. Particulars: 6 h. On the procedure:
PC12 and HEK293T cells were obtained from LGC Promochem GmbH (Teddington, UK) and cultured under the conditions specified by the manufacturer. NIH3T3 cells were stably transfected with human TrkB plasmid. PC12 cells were grown in DMEM medium (11965084, Gibco, Grand Island, NY, USA) containing 10% Horse Serum (16050122, Gibco, Grand Island, NY, USA), 5% Fetal Bovine Serum (10270106, Gibco, Grand Island, NY, USA), 100 units/mL Penicillin and 0.1 mg/mL Streptomycin (15140122, Gibco, Grand Island, NY, USA) at 5% CO2 and 37 °C. Cells were used between passages 5–20. HEK293T and NIH3T3 cells were grown in the same medium as PC12 cells supplemented with 10% Fetal Bovine Serum and lacking Horse Serum. For transient transfection of HEK293T cells, lipofectamine was used and cells were transfected with human p75^NTR and Traf6 plasmids. To determine the intracellular activity of endogenous secretases, we tagged (tGFP) a truncated mutant (Tm) of APP containing the original amino acids sequence from M516 to N773. This Tm conserves the secretases cleavage sites, clathrin binding site, tau protein binding site, collagen binding site and some glycosylation sites critical for protein localization and intracellular trafficking. The cDNA of the TmAPP gene was amplified by PCR and subcloned into pturbo-GFP vector. The construction was transfected into U2OS cells (ATCC Cat Number HTB-96) using Lipofectamine LTX (Thermo Fisher Scientific, Waltham, MA, USA). After 48 h, individual cells were plated in MTP96 plates using F.SIGHT (CYTENA GmbH, Freiburg, Germany), and cultured in complete medium containing 250 μg/mL G418 for selection. The selection medium was changed every two to three days. The cells were allowed to grow for 3 to 4 weeks, after which clones were isolated for further analysis. Resistant clones were checked by RT-PCR and epifluorescence microscopy.
The Alzheimer’s Disease (AD) phenotype is partly attributed to the toxic effects caused by oligmeric Aβ, which results in reduced neuronal trophic support, caused by deregulation of neurotrophic signaling. It is therefore reasonable that a small molecule that can selectively activate TrkA signaling and promote neuronal survival could alleviate the detrimental effects caused by toxic Aβ oligomers, especially during the early phases of the disease or modulate APP misprocessing and therefore reduce the production of the toxic Aβ. The U2OS stably expressing APP-C99-tGFP cell line was used in order to monitor γ-secretase activity, the process responsible for Aβ production from APP. The assay achieves this by measuring the levels of fluorescent APP-C99 construct produced by β-secretase activity. When γ-secretase is active, the construct is cleaved, leading to Aβ production. […] Therefore, higher fluorescence levels correspond to decreased γ-secretase activity and Aβ aggregate formation by extension. […] In addition, in order to investigate whether ENT-A013 can protect cells against Aβ-induced toxicity we isolated neurons from the hippocampus of E17.5 mouse embryos, a brain area that is heavily affected in AD. Neurons were left in culture for 16–18 DIV and then were treated with oligomeric Aβ and ENT-A013 for 48 h. Subsequently, cells were fixed and cell death was assessed using TUNEL assay.
(A,B) Primary hippocampal neurons were treated for 48 h with oligomeric Aβ in the presence of ENT-A013 and TUNEL assay was used to quantify cell death. Representative images from 3 independent experiments. Data are shown as ±SEM. One-way ANOVA, Tukey’s Test correction: ** p < 0.01; *** p < 0.001. (C) Aggregate formation on untreated cells, treated with DAPT inhibitor of γ-secretase or with compound ENT-A013. […] Aggregate formation was quantified with a BD Pathway 855 High-Content Bioimager and Attonvision software.

pIC50: −log10 of the molar value.

T3 sequence (P11712 whole entry): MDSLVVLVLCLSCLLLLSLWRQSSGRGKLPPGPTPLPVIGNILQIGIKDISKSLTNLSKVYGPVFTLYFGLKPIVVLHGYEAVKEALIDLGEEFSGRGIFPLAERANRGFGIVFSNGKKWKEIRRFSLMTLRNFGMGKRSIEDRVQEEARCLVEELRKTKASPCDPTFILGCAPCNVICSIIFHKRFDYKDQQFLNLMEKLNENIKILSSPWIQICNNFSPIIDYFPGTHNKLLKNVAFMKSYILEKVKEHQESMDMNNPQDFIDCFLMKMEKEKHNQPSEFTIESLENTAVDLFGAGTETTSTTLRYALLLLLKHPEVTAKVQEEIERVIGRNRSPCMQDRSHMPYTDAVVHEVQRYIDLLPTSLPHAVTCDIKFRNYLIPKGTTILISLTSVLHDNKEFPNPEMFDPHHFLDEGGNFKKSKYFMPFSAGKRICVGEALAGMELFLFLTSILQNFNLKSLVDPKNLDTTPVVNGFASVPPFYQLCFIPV
T4 sequence (P10635 whole entry): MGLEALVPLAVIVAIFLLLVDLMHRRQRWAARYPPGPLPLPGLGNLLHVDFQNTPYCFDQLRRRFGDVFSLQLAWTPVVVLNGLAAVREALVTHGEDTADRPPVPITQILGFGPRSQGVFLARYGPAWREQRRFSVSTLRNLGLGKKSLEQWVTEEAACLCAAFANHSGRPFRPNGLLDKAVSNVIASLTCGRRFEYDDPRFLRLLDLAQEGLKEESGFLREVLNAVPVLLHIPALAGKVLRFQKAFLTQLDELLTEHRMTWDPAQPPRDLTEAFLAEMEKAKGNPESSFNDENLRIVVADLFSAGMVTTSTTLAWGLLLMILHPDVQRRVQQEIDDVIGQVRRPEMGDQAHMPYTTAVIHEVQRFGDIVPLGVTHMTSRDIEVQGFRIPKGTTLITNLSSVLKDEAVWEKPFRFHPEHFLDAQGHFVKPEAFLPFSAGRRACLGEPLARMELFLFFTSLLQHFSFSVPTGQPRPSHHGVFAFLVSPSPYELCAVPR
T1 sequence (P05177 2-516 limits assumed): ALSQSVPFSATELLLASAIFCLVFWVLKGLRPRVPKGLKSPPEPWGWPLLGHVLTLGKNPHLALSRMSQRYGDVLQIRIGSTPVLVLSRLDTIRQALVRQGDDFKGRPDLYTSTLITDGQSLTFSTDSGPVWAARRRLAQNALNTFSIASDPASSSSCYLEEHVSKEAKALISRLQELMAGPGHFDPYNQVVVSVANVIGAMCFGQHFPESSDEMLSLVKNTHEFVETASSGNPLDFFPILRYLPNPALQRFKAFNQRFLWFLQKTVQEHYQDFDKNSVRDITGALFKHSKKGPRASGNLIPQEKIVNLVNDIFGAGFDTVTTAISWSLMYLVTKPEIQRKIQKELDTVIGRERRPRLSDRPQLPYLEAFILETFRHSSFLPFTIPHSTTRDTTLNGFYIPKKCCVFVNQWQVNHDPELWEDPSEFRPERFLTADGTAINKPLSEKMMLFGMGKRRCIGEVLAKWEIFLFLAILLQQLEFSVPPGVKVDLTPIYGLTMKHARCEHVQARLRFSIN
T2 sequence (P20813 whole entry): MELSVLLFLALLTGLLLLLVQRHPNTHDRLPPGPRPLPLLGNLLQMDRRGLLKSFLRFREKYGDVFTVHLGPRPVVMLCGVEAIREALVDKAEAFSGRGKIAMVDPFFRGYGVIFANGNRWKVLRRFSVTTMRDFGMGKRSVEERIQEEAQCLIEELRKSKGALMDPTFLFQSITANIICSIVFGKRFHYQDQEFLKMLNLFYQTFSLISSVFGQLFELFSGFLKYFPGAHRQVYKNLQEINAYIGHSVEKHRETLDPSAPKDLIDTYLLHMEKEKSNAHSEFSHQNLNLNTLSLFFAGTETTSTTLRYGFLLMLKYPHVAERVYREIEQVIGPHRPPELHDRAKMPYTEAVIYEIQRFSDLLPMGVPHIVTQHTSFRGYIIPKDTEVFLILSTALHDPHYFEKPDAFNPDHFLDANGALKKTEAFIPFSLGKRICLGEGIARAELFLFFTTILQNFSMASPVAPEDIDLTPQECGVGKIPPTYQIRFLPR

In the case of `CC12CCC(O)CC1=CCC1C2CCC2(C)C1CCC21CC1C=CBr` [ENT-A013, (2′R,3S,17S)-2′-(2-Bromovinyl)-5-Androstene-17,1′-Cyclopropan-3-ol], the “CYP450 inhibition (in words)” value is on record as “weak inhibitor” on CYP1A2, “weak inhibitor” on CYP2B6, “weak inhibitor” at CYP2C9 and “moderate inhibition” at CYP2D6. Also, the “increase in APP spot levels compared to DAPT” value in the data set with γ-secretase (10 μM) is reported as 166.3%; in the data set with γ-secretase (30 μM), 246.4%; in the data set on γ-secretase (100 μM), 243.9%; in the data set on γ-secretase (300 μM), 239.9%. The pIC50 in the data set on γ-secretase (Homo sapiens, U2OS, 100 nM to 300 μM, read-out: IC50 (γ-secretase activity, aggregate formation)) was 4.03.
